Measurements as given in ChEMBL document CHEMBL1201862, “PubChem BioAssay data set” (2004).
Activity calls are given as the source filed them.

Columns and labels:
[1] = molecular target: Beta-galactosidase (Escherichia coli, UniProt Q8VNN2); assay: PubChem AID 485352; assay type: functional
[2] = molecular target: T1, Type-1 angiotensin II receptor (Homo sapiens, UniProt P30556); assay: antagonism of angiotensin II type 1 receptor – cell-based, uHTS hits, selectivity assay for APJ receptor antagonist project, dose response (AID 463214); assay type: functional;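 further: antagonist potency against angiotensin II stimulated AT1 response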
T1 sequence (P30556 whole entry): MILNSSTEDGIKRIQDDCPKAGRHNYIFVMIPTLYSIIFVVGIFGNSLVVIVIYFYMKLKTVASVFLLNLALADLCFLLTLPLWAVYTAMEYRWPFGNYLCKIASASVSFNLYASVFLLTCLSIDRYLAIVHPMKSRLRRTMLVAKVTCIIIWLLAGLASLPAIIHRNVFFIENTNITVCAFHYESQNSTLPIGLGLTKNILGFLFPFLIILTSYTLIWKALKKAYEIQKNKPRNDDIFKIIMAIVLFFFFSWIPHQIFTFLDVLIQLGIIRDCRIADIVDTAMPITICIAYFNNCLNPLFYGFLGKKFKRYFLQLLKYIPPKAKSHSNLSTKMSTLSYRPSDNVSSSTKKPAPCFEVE

[3] = molecular target: T2, Nuclear receptor subfamily 0 group B member 1 (Homo sapiens, UniProt P51843); assay: Luminescence-based cell-based high throughput dose response assay for inhibitors of the orphan nuclear receptor subfamily 0, group B, member 1 (DAX1; NR0B1). [Related pubchem assays (depositor defined):AID504766, AID504790]; assay type: functional
T2 sequence (P51843 whole entry): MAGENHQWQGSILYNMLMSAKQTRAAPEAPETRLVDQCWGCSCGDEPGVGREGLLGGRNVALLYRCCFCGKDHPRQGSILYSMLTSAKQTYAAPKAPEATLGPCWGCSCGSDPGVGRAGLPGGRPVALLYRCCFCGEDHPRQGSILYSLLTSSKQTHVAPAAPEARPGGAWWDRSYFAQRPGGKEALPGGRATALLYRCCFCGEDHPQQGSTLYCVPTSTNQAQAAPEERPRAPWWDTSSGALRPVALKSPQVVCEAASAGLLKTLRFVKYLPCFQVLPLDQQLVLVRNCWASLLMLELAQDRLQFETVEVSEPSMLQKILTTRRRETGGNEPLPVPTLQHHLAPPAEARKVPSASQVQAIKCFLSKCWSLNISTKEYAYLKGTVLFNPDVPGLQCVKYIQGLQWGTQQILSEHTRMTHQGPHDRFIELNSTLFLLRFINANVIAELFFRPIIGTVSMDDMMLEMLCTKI

[4] = tested on: HEK293; assay: cells; assay type: functional, cell-based; conditions: Homo sapiens
[5] = Luminescence Cell-Based Dose Confirmation HTS to Identify Activators of 5'UTR Stem-Loop Driven Alpha-Synuclein mRNA Translation in H4 Neuroglioblastoma Cells. [Related pubchem assays: 1829 (Project Summary), 1814 (Primary HTS)]; assay type: functional
[6] = Luminescence Cell-Based Dose Response HTS to Identify Activators of Luciferase Translation or Activity in H4 […] Cells. [Related pubchem assays: 1829 (Project Summary), 1814 (Primary HTS)]; assay type: functional
[7] = tested on: H4; assay: Luminescence Cell-Based Dose Response HTS to Identify Activators of 5'UTR Stem-Loop Driven Prion Protein mRNA Translation in H4 Neuroglioblastoma Cells. [Related pubchem assays: 1829 (Project Summary), 1814 (Primary HTS)]; assay type: functional; conditions: Homo sapiens
[8] = tested on: Vero; assay: cells; assay type: functional; conditions: Chlorocebus sabaeus
[9] = reduction of Shn3 3'UTR-driven luciferase in osteoblasts – cell-based, Clone20 osteoblasts, firefly luciferase, cherry-picked, dose response (AID 624132); assay type: functional;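 further: firefly luciferase luminescence from reporter carrying the Shn3 3'UTR in osteoblasts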
[10] = non-specific 3'UTR reporter inhibition in Clone20-Shn3RL – cell-based, Renilla luciferase, cherry-picked, counter-screen for Shn3 inhibitor project, dose response (AID 624133); assay type: functional
[11] = tested on: HEK293; assay: EBV LMP1 TES2 canonical NF-kB signalling blockers – cell-based, HEK293, luciferase, cherry-pick, dose response (AID 588343); assay type: functional; conditions: Homo sapiens
[12] = loss of viability in HepG2 cells – cell-based, CellTiter-Glo, cherry-picked, cytotoxicity control for Shn3 inhibitor project, dose response (AID 624134); assay type: functional
[13] = tested on: Vero; assay: cells; assay type: functional, cell-based; conditions: Chlorocebus sabaeus
[14] = molecular target: T3, Protein RecA (Mycobacterium tuberculosis, UniProt P9WHJ3); assay: Fluorescence Cell-Free Homogeneous Dose Retest to Identify Inhibitors of RecA-Intein Splicing Activity. [Related pubchem assays (depositor defined):AID2097, AID2223, AID489010, AID492950]; assay type: functional
T3 sequence (P9WHJ3 whole entry): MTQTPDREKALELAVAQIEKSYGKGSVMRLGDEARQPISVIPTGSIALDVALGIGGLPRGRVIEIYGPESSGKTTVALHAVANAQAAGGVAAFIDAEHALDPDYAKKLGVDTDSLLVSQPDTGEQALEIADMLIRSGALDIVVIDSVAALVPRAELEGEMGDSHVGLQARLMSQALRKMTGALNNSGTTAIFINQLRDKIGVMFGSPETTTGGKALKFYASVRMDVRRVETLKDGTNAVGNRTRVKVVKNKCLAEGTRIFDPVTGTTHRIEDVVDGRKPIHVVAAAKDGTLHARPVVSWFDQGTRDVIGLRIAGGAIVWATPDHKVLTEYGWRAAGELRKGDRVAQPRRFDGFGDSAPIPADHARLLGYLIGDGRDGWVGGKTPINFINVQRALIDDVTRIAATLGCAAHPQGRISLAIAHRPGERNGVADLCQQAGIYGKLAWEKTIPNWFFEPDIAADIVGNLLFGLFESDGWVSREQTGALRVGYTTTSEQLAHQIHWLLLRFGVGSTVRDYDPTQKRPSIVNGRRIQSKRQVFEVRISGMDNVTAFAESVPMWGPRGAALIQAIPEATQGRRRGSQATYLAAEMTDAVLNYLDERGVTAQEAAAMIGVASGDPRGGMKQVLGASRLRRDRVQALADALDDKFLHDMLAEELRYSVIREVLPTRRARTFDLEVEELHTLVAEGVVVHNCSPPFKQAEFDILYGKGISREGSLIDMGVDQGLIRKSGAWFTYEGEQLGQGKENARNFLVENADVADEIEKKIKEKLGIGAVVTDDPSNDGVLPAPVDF

[15] = molecular target: T4, Heat shock factor protein 1 (Mus musculus, UniProt P38532); assay: decrease of HSF1-responsive luciferase luminescence – cell-based, NIH3T3, dose retest, confirmation (AID 2382); assay type: functional;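 further: NIH3T3 fibroblasts with HSF1-driven luciferase reporter stressed by proteasome inhibitor MG132; luminescence from HSF1-driven luciferase expression after 8 hours of MG132 stress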
T4 sequence (P38532 whole entry): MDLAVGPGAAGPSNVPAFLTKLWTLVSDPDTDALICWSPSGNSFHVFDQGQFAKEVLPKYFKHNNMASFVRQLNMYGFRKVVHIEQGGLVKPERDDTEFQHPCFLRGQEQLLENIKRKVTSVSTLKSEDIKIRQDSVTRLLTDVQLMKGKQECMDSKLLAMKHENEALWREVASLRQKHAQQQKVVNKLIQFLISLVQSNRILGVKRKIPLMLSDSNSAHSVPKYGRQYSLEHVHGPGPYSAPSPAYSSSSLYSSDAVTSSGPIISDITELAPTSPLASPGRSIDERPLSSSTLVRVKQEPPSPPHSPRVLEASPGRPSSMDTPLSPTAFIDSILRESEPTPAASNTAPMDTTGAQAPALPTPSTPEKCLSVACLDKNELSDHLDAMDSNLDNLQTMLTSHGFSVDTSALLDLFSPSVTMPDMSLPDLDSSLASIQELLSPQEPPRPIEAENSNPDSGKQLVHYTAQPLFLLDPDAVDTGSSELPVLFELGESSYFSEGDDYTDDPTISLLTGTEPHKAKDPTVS

[16] = molecular target: T5, Replicative DNA helicase DnaB (Mycobacterium tuberculosis, UniProt P9WMR3); assay: DnaB intein splicing inhibitors, dose response, biochemical, cell-free fluorescence (AID 449749); assay type: functional
T5 sequence (P9WMR3 whole entry): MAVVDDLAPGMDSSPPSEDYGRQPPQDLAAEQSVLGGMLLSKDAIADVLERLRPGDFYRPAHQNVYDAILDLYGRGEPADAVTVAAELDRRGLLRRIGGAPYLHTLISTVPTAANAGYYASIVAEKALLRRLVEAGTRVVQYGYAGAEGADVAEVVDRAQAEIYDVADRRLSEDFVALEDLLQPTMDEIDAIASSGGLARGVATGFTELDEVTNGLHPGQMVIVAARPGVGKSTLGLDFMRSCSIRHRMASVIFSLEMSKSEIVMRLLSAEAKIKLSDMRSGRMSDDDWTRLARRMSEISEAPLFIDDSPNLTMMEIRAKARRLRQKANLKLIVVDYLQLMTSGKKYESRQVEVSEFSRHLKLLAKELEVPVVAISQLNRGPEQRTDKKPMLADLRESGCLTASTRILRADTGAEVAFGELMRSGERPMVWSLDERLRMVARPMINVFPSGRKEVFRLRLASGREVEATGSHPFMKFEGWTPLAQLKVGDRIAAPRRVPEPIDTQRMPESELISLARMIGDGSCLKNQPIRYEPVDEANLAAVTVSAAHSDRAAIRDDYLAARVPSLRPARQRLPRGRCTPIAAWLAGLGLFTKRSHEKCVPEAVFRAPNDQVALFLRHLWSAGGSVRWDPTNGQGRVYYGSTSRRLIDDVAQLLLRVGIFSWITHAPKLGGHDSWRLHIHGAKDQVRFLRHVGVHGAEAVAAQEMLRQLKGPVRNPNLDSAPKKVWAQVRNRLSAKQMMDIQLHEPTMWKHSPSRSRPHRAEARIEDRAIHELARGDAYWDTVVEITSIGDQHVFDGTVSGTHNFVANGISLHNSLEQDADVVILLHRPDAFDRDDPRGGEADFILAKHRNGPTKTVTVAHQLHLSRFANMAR

[17] = tested on: Jurkat; assay: blockers of NF-kB activation in T cells – Jurkat, luciferase reporter, luminescence, B- and T-cell, dose response (AID 489004); assay type: functional, cell-based; conditions: Homo sapiens;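 further: NF-kB luciferase reporter Jurkat cells stimulated with PMA plus ionomycin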
[18] = microbe, parasite or virus in culture; assay type: functional; conditions: Mycobacterium tuberculosis
[19] = HEK-293T viability loss, compound-treated – cell-based, uHTS hits, cytotoxicity control for B/T-cell NF-kB inhibitor project, dose response (AID 489019); assay type: functional;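 further: IC50 reflects cytotoxicity as loss of cell viability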
[20] = molecular target: T6, High affinity choline transporter 1 (Homo sapiens, UniProt Q9GZV3); assay: human choline transporter blockers, potency – cell-based, 5-point CRC, membrane potential dye, dose response (AID 504840); assay type: functional
T6 sequence (Q9GZV3 whole entry): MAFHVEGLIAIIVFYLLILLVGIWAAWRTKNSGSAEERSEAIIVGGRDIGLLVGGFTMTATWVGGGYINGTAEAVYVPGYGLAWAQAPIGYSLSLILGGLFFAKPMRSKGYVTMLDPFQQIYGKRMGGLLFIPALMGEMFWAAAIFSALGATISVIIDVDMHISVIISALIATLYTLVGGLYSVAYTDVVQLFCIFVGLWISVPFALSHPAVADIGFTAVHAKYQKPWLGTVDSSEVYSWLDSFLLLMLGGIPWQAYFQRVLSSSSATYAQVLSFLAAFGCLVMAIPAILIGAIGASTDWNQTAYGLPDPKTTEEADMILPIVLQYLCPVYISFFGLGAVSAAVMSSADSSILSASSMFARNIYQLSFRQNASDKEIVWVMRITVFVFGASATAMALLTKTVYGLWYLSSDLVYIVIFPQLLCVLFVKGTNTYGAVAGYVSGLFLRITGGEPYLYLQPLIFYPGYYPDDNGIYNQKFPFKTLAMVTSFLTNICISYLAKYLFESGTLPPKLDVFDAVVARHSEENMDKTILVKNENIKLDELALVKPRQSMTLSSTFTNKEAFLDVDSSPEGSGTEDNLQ

Beta-galactosidase, sequence (Q8VNN2 whole entry): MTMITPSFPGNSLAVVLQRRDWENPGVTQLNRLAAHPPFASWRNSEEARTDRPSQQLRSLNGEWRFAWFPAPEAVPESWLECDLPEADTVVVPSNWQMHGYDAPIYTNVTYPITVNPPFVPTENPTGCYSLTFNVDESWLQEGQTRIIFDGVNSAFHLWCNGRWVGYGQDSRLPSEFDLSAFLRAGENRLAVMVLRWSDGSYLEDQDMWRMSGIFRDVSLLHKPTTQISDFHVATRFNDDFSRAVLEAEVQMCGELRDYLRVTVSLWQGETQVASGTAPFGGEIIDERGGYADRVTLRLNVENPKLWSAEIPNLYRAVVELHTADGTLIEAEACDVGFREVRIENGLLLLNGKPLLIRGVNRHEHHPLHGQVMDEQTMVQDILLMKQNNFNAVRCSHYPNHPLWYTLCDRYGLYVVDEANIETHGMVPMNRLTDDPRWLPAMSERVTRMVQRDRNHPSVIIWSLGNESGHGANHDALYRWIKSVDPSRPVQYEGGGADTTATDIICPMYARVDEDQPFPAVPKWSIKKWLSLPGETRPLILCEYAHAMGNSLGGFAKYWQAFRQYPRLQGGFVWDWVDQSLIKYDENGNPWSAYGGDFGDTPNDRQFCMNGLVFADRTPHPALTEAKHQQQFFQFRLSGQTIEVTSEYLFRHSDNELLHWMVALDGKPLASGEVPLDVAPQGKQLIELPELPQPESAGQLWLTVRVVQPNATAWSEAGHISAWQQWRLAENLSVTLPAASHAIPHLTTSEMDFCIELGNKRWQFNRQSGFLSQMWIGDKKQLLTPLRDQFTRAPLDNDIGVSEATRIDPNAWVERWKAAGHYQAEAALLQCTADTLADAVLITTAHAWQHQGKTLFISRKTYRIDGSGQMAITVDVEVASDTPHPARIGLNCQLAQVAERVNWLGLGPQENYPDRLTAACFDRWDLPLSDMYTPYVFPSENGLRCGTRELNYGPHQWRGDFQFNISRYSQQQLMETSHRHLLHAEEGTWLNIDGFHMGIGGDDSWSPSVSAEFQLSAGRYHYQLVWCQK

## O=C(Cc1ccc(F)cc1)OCC(=O)c1cc2ccccc2o1
[1]
  EC50: > 40 µM (inactive)
[2]
  IC50: 23.9 µM (not active)

## CS(=O)(=O)N1CCc2cc(C(=O)Nc3ccccc3Cl)ccc21
[3]
  IC50: > 67.5 µM (inactive)
[4]
  IC50: > 67.5 µM (inactive)

## CN1CCN(C(=S)c2ccc(-c3cccc([N+](=O)[O-])c3)o2)CC1
[3]
  IC50: > 67.6 µM (inactive)
[4]
  IC50: > 67.6 µM (inactive)
[5]
  EC50: 0.141 µM (active)
[6]
  EC50: 0.117 µM (active)
[7]
  EC50: 2.4 µM (active)

## COc1ccc(C(=O)NC2CCCc3c2cnn3-c2cccc(C)c2C)c(OC)n1 (stereo unspecified)
[8]
  CC50: > 25 µM (active)
[9]
  AC50: 1.96 µM (active)
[10]
  AC50: 3.27 µM (active)
[11]
  AC50: 17.5 µM (active)
[12]
  AC50: > 70 µM (inactive)
[13]
  IC50: 3.8 µM (active)

## O=C(CCl)N1CCCC1c1ccc2c(c1)OCCO2 (stereo unspecified)
[14]
  EC50: > 380 µM (inconclusive)
[15]
  EC50: 1.14 µM (active)
[16]
  AC50: 12.2 µM (active)
[17]
  IC50: 1.39 µM (active)
[18]
  CC50: 11.6 µM (active)
[19]
  IC50: > 80 µM (inactive)
[5]
  EC50: 29.6 µM (active)
[6]
  EC50: 14 µM (active)
[7]
  EC50: > 120 µM (not active)

## Nc1c(-c2ccc(Cl)cc2)cnc2c(-c3ccccc3)cnn12
[3]
  IC50: > 67.5 µM (inactive)
[4]
  IC50: > 67.5 µM (inactive)

## O=C1Nc2ccccc2C1=Nc1ccc(F)cc1
[1]
  EC50: > 40 µM (inactive)
[2]
  IC50: 24.4 µM (not active)

## Cc1ccnc(SCc2cc(=O)c(OC(=O)c3ccco3)co2)n1
[20]
  IC50: 15.8 µM (active)

## CCCCCn1c(=O)[nH]c2cc(C(=O)NCCCN3CCCCC3C)ccc2c1=O (stereo unspecified)
[20]
  IC50: 14.5 µM (active)

## CCc1ccc(-c2nc(C[S+]([O-])CC(=O)NCc3ccco3)c(C)o2)cc1 (stereo unspecified)
[17]
  IC50: 44.1 µM (inactive)
[19]
  IC50: > 80 µM (inactive)

## c1ccc2c(c1)ccc1[nH]c3c(c12)CCCC3
[8]
  CC50: > 25 µM (active)
[13]
  IC50: 3.39 µM (active)

## O=C(C=Cc1ccccc1)c1cnc2ccccc2c1O
[8]
  CC50: 11 µM (active)
[13]
  IC50: > 25 µM (active)
